{"source": "patent US20120329813A1", "about": "(Cardoz AB, priority 2009, published 2012)", "key": {"[1]": {"test_system": "CRP", "conditions": "subjects with prediabetes and elevated serum TNF-alpha; cited from earlier work"}, "[2]": {"test_system": "plasma C-reactive protein (CRP)", "assay": "Plasma CRP (hsCRP assay) in a patient with coronary artery disease treated with pemirolast potassium for two weeks", "format": "in vivo, human", "conditions": "CAD patient, 30 mg b.i.d., 6.4 mg/L on Day 1 before the first dose", "method": "The study was approved by the Swedish Medical Products Agency, and performed by Berzelius Clinical Research Centre AB in Linköping, Sweden (the clinic).\nPlasma CRP was determined with the high sensitivity CRP (hsCRP) assay described in Example 1 above.\n(§1) The first dose (3×10 mg) was administered in the morning of Day 1 at the clinic, the second dose in the evening of Day 1 at home, and then 3×10 mg b.i.d. at home during Days 2 to 14. The last dose was administered in the evening of Day 14 at home.\n(§2) The CAD patient was a person with a body height of 188 cm and a body weight of 103 kg. They were on treatment with enalapril 20 mg QD (once daily) for hypertension since 2006. After a myocardial infarction in 2009, they were started on treatment with simvastatin 40 mg QD, acetylsalicylic acid 75 mg QD, and metoprolol 100 mg QD (all three drugs started in June 2009). Since January 2010, the patient was also treated with felodipin 5 mg QD. During the two week treatment with pemirolast, the patient continued to take these medications."}, "[3]": {"assay": "Safety in the CAD patient during the two week pemirolast treatment", "format": "in vivo, human", "conditions": "30 mg b.i.d. for two weeks", "method": "as §1, §2"}, "[4]": {"test_system": "plasma tryptase", "assay": "Plasma tryptase (ImmunoCAP Tryptase Fluoro-Immuno-Enzymatic Assay) in healthy volunteers before and after pemirolast treatment", "format": "in vivo, human", "method": "(§3) Plasma CRP was determined with a high sensitivity CRP assay (based on Near Infrared Particle Immunoassay rate methodology) on a UniCel DxC 800 instrument from Beckman Coulter (analysis performed at the Department of Clinical Chemistry, Karolinska University Laboratory, Stockholm, Sweden). The degree of mast cell activity was determined by measuring plasma tryptase with the ImmunoCAP Tryptase Fluoro-Immuno-Enzymatic Assay on a ImmunoCAP 250 instrument from Phadia (analysis performed at Clinical Immunology and Transfusion Medicine, Karolinska University Laboratory, Stockholm, Sweden)."}, "[5]": {"conditions": "human, in vivo, po", "protocol": "During days 2-4, each subject received one dose in the morning and one dose in the evening with a time interval of 12 hours between the daily doses. […] Other than the occasional use of nasal decongestants or paracetamol, the subjects were instructed not to use other drugs, alcohol or nicotine during the study."}, "[6]": {"test_system": "plasma CRP", "assay": "Plasma CRP (high sensitivity CRP assay) in healthy volunteers treated perorally with pemirolast potassium for five days", "format": "in vivo, human", "method": "as §3"}, "[7]": {"conditions": "apparently healthy subjects with normal or low LDL cholesterol and elevated CRP; 1.9 years; cited from earlier work"}, "[8]": {"test_system": "hsCRP", "conditions": "patients with chronic obstructive pulmonary disease; cited from earlier work"}}, "data": [{"smiles": "CN1CCC(=C2c3ccccc3CC(=O)c3sccc32)CC1", "note": "[ketotifen]", "values": [{"measurement": "effect on CRP", "setting": "[1]", "value": "not to reduce CRP"}]}, {"smiles": "Cc1cccn2c(=O)c(-c3nnn[nH]3)cnc12", "note": "[pemirolast]", "values": [{"measurement": "CRP level", "setting": "[2]; Day 8", "value": 4.0, "unit": "mg/L"}, {"measurement": "CRP level", "setting": "[2]; morning of Day 15", "value": 1.8, "unit": "mg/L"}, {"measurement": "adverse events", "setting": "[3]", "value": "did not report any adverse events"}, {"measurement": "effect on tryptase levels", "setting": "[4]; four subjects with SLGI, plasma CRP >0.9 mg/L", "value": "did not reduce"}, {"measurement": "mean plasma tryptase level", "setting": "[4]; four subjects with plasma CRP >0.9 mg/L, both before and after pemirolast treatment", "value": 4.8, "unit": "µg/L"}, {"measurement": "AUC and Cmax versus dose", "setting": "[5]", "value": "increased in a dose-proportional manner"}, {"measurement": "effect on CRP levels (FIG. 1)", "setting": "[6]; four subjects with baseline CRP >0.9 mg/L, 10, 30 or 50 mg day 1-5", "value": "markedly reduced"}, {"measurement": "mean CRP level at the end of the pemirolast treatment", "setting": "[6]; four subjects with baseline plasma CRP >0.9 mg/L, 10, 30 or 50 mg per os b.i.d. day 1-5, 1.8 mg/L before treatment, p<0.05", "value": 1.1, "unit": "mg/L"}, {"measurement": "mean CRP level at the end of the pemirolast treatment", "setting": "[6]; remaining subjects with baseline CRP below 0.9 mg/L (n=13), 0.32 mg/L before treatment", "value": 0.38, "unit": "mg/L"}]}, {"smiles": "CC(C)c1nc(N(C)S(C)(=O)=O)nc(-c2ccc(F)cc2)c1/C=C/[C@@H](O)C[C@@H](O)CC(=O)O", "note": "[rosuvastatin]", "values": [{"measurement": "effect on cardiovascular morbidity/mortality", "setting": "[7]", "value": "significantly reduces"}]}, {"smiles": "Cn1c(=O)c2[nH]cnc2n(C)c1=O", "note": "[theophylline]", "values": [{"measurement": "effect on hsCRP", "setting": "[8]", "value": "not to reduce hsCRP"}]}]}
